Measured values reported in ChEMBL document CHEMBL1629642, “In vitro efficacy of ST246 against smallpox and monkeypox” (Antimicrob Agents Chemother, 2009).
pEC50: −log10 of the molar value. The source made the active and inactive calls. No cut-off for these calls is given here.

Tests used:
Variola virus [1] = assay: Antiviral activity against Variola virus BSH74-sol infected in african green monkey BSC-40 cells at 0.05 to 0.5 uM by IHC staining-based comet tail reduction assay; assay type: functional, organism-based
Variola virus [2] = assay: Antiviral activity against Variola virus NEP73-175 infected in african green monkey BSC-40 cells at 0.05 to 0.5 uM by IHC staining-based comet tail reduction assay; assay type: functional, organism-based
Monkeypox virus [3] = assay: Antiviral activity against Monkeypox virus 2003-USA-039 infected in african green monkey BSC-40 cells at 0.05 to 0.5 uM by IHC staining-based comet tail reduction assay; assay type: functional, organism-based
Variola virus [4] = assay: Antiviral activity against Variola virus SUD47-juba infected in african green monkey BSC-40 cells at 0.015 uM by IHC staining-based comet tail reduction assay; assay type: functional, organism-based
Variola virus [5] = assay: Antiviral activity against Variola virus SOM77-ali infected in african green monkey BSC-40 cells at 0.015 uM by IHC staining-based comet tail reduction assay; assay type: functional, organism-based
Monkeypox virus [6] = assay: Antiviral activity against Monkeypox virus V78-I-3945 infected in african green monkey BSC-40 cells at 0.015 uM by IHC staining-based comet tail reduction assay; assay type: functional, organism-based
Monkeypox virus [7] = assay: Antiviral activity against Monkeypox virus V77-I-823 infected in african green monkey BSC-40 cells at 0.015 uM by IHC staining-based comet tail reduction assay; assay type: functional, organism-based
Variola virus [8] = assay: Antiviral activity against Variola virus NEP73-175 infected in african green monkey BSC-40 cells assessed as reduction in viral plaque formation at 0.015 uM uM by IHC staining-based plaque reduction assay; assay type: functional
Variola virus [9] = assay: Antiviral activity against Variola virus SOM77-ali infected in african green monkey BSC-40 cells assessed as reduction in viral plaque formation at 0.015 uM uM by IHC staining-based plaque reduction assay; assay type: functional
Monkeypox virus [10] = assay: Antiviral activity against Monkeypox virus V78-I-3945 infected in african green monkey BSC-40 cells at 0.005 uM by IHC staining-based comet tail reduction assay; assay type: functional, organism-based
Monkeypox virus [11] = assay: Antiviral activity against Monkeypox virus 2003-USA-039 infected in african green monkey BSC-40 cells assessed as reduction in viral plaque formation at 0.015 uM uM by IHC staining-based plaque reduction assay; assay type: functional
Monkeypox virus [12] = assay: Antiviral activity against Monkeypox virus V77-I-823 infected in african green monkey BSC-40 cells assessed as reduction in viral plaque formation at 0.015 uM uM by IHC staining-based plaque reduction assay; assay type: functional
Variola virus [13] = assay: Antiviral activity against Variola virus BRZ66-39 infected in african green monkey BSC-40 cells at 0.05 to 5 uM assessed as reduction in virus-induced cytopathic effect; assay type: functional, organism-based
Monkeypox virus [14] = assay: Antiviral activity against Monkeypox virus V78-I-3945 infected in african green monkey BSC-40 cells at 0.005 uM uM by IHC staining-based plaque reduction assay; assay type: functional, organism-based
Monkeypox virus [15] = assay: Antiviral activity against Monkeypox virus V81-I-179 infected in african green monkey BSC-40 cells at 0.005 uM uM by IHC staining-based plaque reduction assay; assay type: functional, organism-based
Monkeypox virus [16] = assay: Antiviral activity against Monkeypox virus V1979-I-005 infected in african green monkey BSC-40 cells at 0.005 uM uM by IHC staining-based plaque reduction assay; assay type: functional, organism-based
Variola virus [17] = assay: Antiviral activity against Variola virus SLN68-258 infected in african green monkey BSC-40 cells at 0.05 to 0.5 uM by IHC staining-based comet tail reduction assay; assay type: functional, organism-based
Monkeypox virus [18] = assay: Antiviral activity against Monkeypox virus V81-I-179 infected in african green monkey BSC-40 cells assessed as reduction in virus-induced cytopathic effect at 0.05 to 5 uM; assay type: functional, organism-based
Variola virus [19] = assay: Antiviral activity against Variola virus BRZ66-39 infected in african green monkey BSC-40 cells at 0.015 uM assessed as reduction in virus-induced cytopathic effect; assay type: functional, organism-based
Monkeypox virus [20] = assay: Antiviral activity against Monkeypox virus V81-I-179 infected in african green monkey BSC-40 cells assessed as reduction in virus-induced cytopathic effect at 0.015 uM; assay type: functional, organism-based
Monkeypox virus [21] = assay: Antiviral activity against Monkeypox virus V1979-I-005 infected in african green monkey BSC-40 cells assessed as reduction in virus-induced cytopathic effect at 0.015 uM; assay type: functional, organism-based
Variola virus [22] = assay: Antiviral activity against Variola virus SLN68-258 infected in african green monkey BSC-40 cells at 0.005 uM assessed as reduction in virus-induced cytopathic effect; assay type: functional, organism-based
Variola virus [23] = assay: Antiviral activity against Variola virus NEP73-175 infected in african green monkey BSC-40 cells at 0.005 uM assessed as reduction in virus-induced cytopathic effect; assay type: functional, organism-based
Monkeypox virus [24] = assay: Antiviral activity against Monkeypox virus V78-I-3945 infected in african green monkey BSC-40 cells assessed as reduction in virus-induced cytopathic effect at 0.005 uM; assay type: functional, organism-based
Monkeypox virus [25] = assay: Antiviral activity against Monkeypox virus 2003-USA-039 infected in african green monkey BSC-40 cells assessed as reduction in virus-induced cytopathic effect at 0.005 uM; assay type: functional, organism-based
Monkeypox virus [26] = assay: Antiviral activity against Monkeypox virus infected in african green monkey vero cells assessed as reduction in virus-induced cytopathic effect; assay type: functional, organism-based
Camelpox virus = assay: Antiviral activity against Camelpox virus infected in african green monkey Vero cells assessed as reduction in virus-induced cytopathic effect; assay type: functional, organism-based
Monkeypox virus [27] = assay: Antiviral activity against Monkeypox virus V78-I-3945 infected in african green monkey BSC-40 cells assessed as reduction in virus-induced cytopathic effect; assay type: functional, organism-based; settings: V78-I-3945, BSC-40
Monkeypox virus [28] = assay: Antiviral activity against Monkeypox virus V1979-I-005 infected in african green monkey BSC-40 cells assessed as reduction in virus-induced cytopathic effect; assay type: functional, organism-based; settings: V1979-I-005, BSC-40
Variola virus [29] = assay: Antiviral activity against Variola virus NEP73-175 infected in african green monkey BSC-40 cells at 0.05 to 0.5 uM by IHC staining-based plaque reduction assay; assay type: functional, organism-based
Variola virus [30] = assay: Antiviral activity against Variola virus SOM77-ali infected in african green monkey BSC-40 cells at 0.05 to 0.5 uM by IHC staining-based plaque reduction assay; assay type: functional, organism-based
Monkeypox virus [31] = assay: Antiviral activity against Monkeypox virus V81-I-179 infected in african green monkey BSC-40 cells at 0.05 to 0.5 uM by IHC staining-based plaque reduction assay; assay type: functional, organism-based
Monkeypox virus [32] = assay: Antiviral activity against Monkeypox virus V77-I-823 infected in african green monkey BSC-40 cells at 0.05 to 0.5 uM by IHC staining-based plaque reduction assay; assay type: functional, organism-based
Variola virus [33] = assay: Antiviral activity against Variola virus BRZ66-39 infected in african green monkey BSC-40 cells assessed as reduction in viral plaque formation at 0.015 uM uM by IHC staining-based plaque reduction assay; assay type: functional
Variola virus [34] = assay: Antiviral activity against Variola virus BSH74-sol infected in african green monkey BSC-40 cells assessed as reduction in viral plaque formation at 0.015 uM uM by IHC staining-based plaque reduction assay; assay type: functional
Variola virus [35] = assay: microbe, parasite or virus in culture; settings: SLN68-258, BSC-40
Variola virus [36] = assay: microbe, parasite or virus in culture; settings: SUD47-juba, BSC-40

For `O=C(NN1C(=O)[C@@H]2[C@@H]3C=C[C@@H]([C@H]4C[C@@H]34)[C@@H]2C1=O)c1ccc(C(F)(F)F)cc1` [TECOVIRIMAT], the Activity (Variola virus [1]) was “Active”, the Activity (Variola virus [2]) was “Active” and the Activity (Monkeypox virus [3]) was “Active”. The Activity (Variola virus [4]) was “Active”, the Activity (Variola virus [5]) was “Active” and the Activity (Monkeypox virus [6]) was “Active”. For the same compound, the Activity (Monkeypox virus [7]) was “Active”, the “inhibition (INH)” value (Variola virus [8]) was 50% and the “inhibition (INH)” value (Variola virus [9]) was 50%. The Activity (Monkeypox virus [10]) was “inactive”, the “inhibition (INH)” value (Monkeypox virus [11]) was 50% and the “inhibition (INH)” value (Monkeypox virus [12]) was 50%. The Activity (Variola virus [13]) was “Active”, the Activity (Monkeypox virus [14]) was “inactive” and the Activity (Monkeypox virus [15]) was “inactive”. For the same compound, the Activity (Monkeypox virus [16]) was “inactive”, the Activity (Variola virus [17]) was “Active” and the Activity (Monkeypox virus [18]) was “Active”. The Activity (Variola virus [19]) was “Active”, the Activity (Monkeypox virus [20]) was “Active” and the Activity (Monkeypox virus [21]) was “Active”. For the same compound, the Activity (Variola virus [22]) was “inactive”, the Activity (Variola virus [23]) was “inactive” and the Activity (Monkeypox virus [24]) was “inactive”. For the same compound, the Activity (Monkeypox virus [25]) was “inactive”, the Activity (Monkeypox virus [26]) was “Active” and the Activity (Camelpox virus) was “Active”. The pEC50 (Monkeypox virus [27]) was 7.64, the pEC50 (Monkeypox virus [28]) was 7.41 and the Activity (Variola virus [29]) was “Active”. The Activity (Variola virus [30]) was “Active”, the Activity (Monkeypox virus [31]) was “Active” and the Activity (Monkeypox virus [32]) was “Active”. The “inhibition (INH)” value (Variola virus [33]) was 50%, the “inhibition (INH)” value (Variola virus [34]) was 50% and the pEC50 (Variola virus [35]) was 7.43. For the same compound, the pEC50 (Variola virus [36]) was 7.72.
